Test results reported in the METLIN SMRT retention time set (Domingo-Almenara et al. 2019).

Assay: gradient 5% acetonitrile 3 min, to 50% in 2 min, to 85% in 15 min, held 3 min, 100 µL/min
Conditions: column: Zorbax Extend-C18 2.1 x 50 mm; eluents: water / acetonitrile, 0.1% formic acid
Method in brief: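 Pure standards were analyzed in mixtures of ~100 molecules using HPLC coupled to a quadrupole time-of-flight mass spectrometer, in both positive and negative ionization mode. Separation used a Zorbax Extend-C18 column (2.1 × 50 mm, 1.8 μm) at 100 μL/min, with water and acetonitrile each containing 0.1% formic acid. Dead and dwell volumes were 40 μL and 900 μL, and data were collected over 3 months. Retention time was read from computationally picked adduct peaks, each inspected manually.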

Structure (SMILES)	RP-LC retention time
Cn1cnc2c(C(=O)NCC3CCCO3)nn(-c3ccccc3)c2c1=O (stereo not drawn)	641 s
Cc1cc2c(c(=O)n(-c3ccccc3)c(=O)n2CC(=O)Nc2ccccc2C(F)(F)F)n1C	904 s
O=C(NC1CCCCC1)C1CCN(C(=O)c2ncn3c2COC(c2ccc(Cl)cc2)C3)CC1 (stereo not drawn)	844 s
COC(=O)C1C(=O)C2=C(CC1C)NC(=O)CC2c1cccc(Cl)c1 (stereo not drawn)	773 s
O=C(C1CC1)N1CCCC(OCc2nc(-c3cnccn3)no2)C1 (stereo not drawn)	651 s
CCc1nc(-c2csc(S(=O)(=O)N3CCCC(C(=O)N4CCc5ccccc54)C3)c2)no1 (stereo not drawn)	1110 s
O=C(NC1CCCC1)C1CCCCN1S(=O)(=O)c1ccc(F)cc1 (stereo not drawn)	941 s
Cc1nc(N2CCN(c3ccccn3)CC2)c2c3c(sc2n1)CCC3	569 s
O=C(Cn1nc2c(Oc3ccccc3)nccn2c1=O)Nc1cc(C(F)(F)F)ccc1Cl	960 s
Cn1nc(C2CCN(S(=O)(=O)Cc3cccc(Cl)c3)CC2)n(C2CCCC2)c1=O	888 s
Cc1cccc(CN2CCCN(CC(=O)NC(C)CCc3ccccc3)S2(=O)=O)c1 (stereo not drawn)	1080 s
O=C(NCC1CCN(S(=O)(=O)C2CC2)CC1)C1(c2ccc(F)cc2)CC1	595 s
O=C(NCc1ccc(F)cc1)C1CCN(S(=O)(=O)c2ccc(-c3noc(C4CC4)n3)cc2)CC1	1020 s
c1ccc(N2CCN(c3nnc(-n4cccc4CN4CCN(c5ccccn5)CC4)s3)CC2)cc1	675 s
Cc1ccccc1CNS(=O)(=O)c1ccc2c(c1)C(=O)N(C)c1ncccc1O2	1010 s
Cn1cc(NC(=O)Nc2ccc(F)c(F)c2)c2ccccc21	848 s
O=[N+]([O-])c1c(NCCCO)cc(N2CCN(c3ccccn3)CC2)c2nonc12	584 s
CC(=O)N[C@@H](Cc1c[nH]c2ccccc12)C(=O)OCc1cc(C(F)(F)F)cc(C(F)(F)F)c1	1100 s
O=C(NC1CC1)[C@@H]1C[C@H](Oc2ccccc2)CN1C(=O)Cn1c(=O)oc2ccccc21	786 s
CCOc1ccc(-c2nc(-c3ccc(NS(=O)(=O)c4cccs4)cc3)no2)cc1	1170 s
COC(=O)CNC(=O)N1CCCC1c1ccccc1C (stereo not drawn)	737 s
CCC(C)NC(=O)c1cc(COc2ccc(NC(=O)C(C)(C)C)cc2)on1 (stereo not drawn)	900 s

Structure (SMILES)	RP-LC retention time
c1cc(-c2noc(COC3CCCN(Cc4ccoc4)C3)n2)ccn1 (stereo not drawn)	570 s
COc1cc(=O)n2c(c1C(=O)Nc1ccc(Br)c(C)c1)CCCC2	833 s
O=C(Cn1c(=O)cc(-c2nc(C3CC3)no2)c2ccccc21)NCc1cccs1	882 s
O=C(CC1c2ncccc2C(=O)N1c1ccc(F)cc1)NCc1cc(F)ccc1F (stereo not drawn)	737 s
COC(=O)Nc1csc2c1NC(=O)CCCC2	716 s
COc1ccc(NC(=O)Cn2c(N3CCc4ccccc4C3)nc(C)cc2=O)cc1	757 s
O=C(CCn1c(N2CCCC2)nc2ccsc2c1=O)NCc1ccc(F)cc1F	779 s
O=C(O)C1CCN(S(=O)(=O)C2CC2)CC1	585 s
CNC(=O)c1sc2nc(-c3ccc(C)cc3)c(NCCOC)n2c1C	712 s
Nc1nc(N2CCC3(CC2)OCCO3)ncc1C(=O)NCc1ccccc1F	651 s
CNC(=O)[C@@H]1C[C@H](Oc2ccccc2)CN1C(=O)c1n[nH]c2ccccc12	706 s
O=C(C1CCN(c2ncnc3c2oc2ccccc23)CC1)N1CCN(c2ccc(Cl)cc2)CC1	891 s
COCC(=O)N(C1CCOCC1)C1CCN(S(=O)(=O)c2ccccc2C)CC1	737 s
COc1cccc(CN2N=C(C(=O)N3CCOCC3)S(=O)(=O)c3cc(Cl)ccc32)c1	887 s
CCc1cc(=O)n(CC(=O)Nc2cccc(C)c2C)c(N)n1	608 s
Cn1c(=O)c(N2CCCC(C(=O)N3CCCCCC3)C2)nc2cccnc21 (stereo not drawn)	918 s
Cc1ccccc1S(=O)(=O)N1CCC(n2cnnc2-c2ccccc2)CC1	773 s
COc1ccc(-c2c(C)noc2NC(C)=O)cc1S(=O)(=O)Nc1ccc(C)cc1Br	832 s
CC(C)c1ccc(NC(=O)Cn2cccc2-c2nc(-c3ccc4c(c3)OCO4)no2)cc1	1220 s
CCc1cc(=O)n(CC(=O)Nc2ccc(C)cc2C)c(N2CCOCC2)n1	767 s
COc1ccc(CNC(=O)C2(C)Oc3cccnc3N(C)C2=O)cc1 (stereo not drawn)	748 s
CC(=O)NS(=O)(=O)c1ccc2sc(C)nc2c1	700 s

Structure (SMILES)	RP-LC retention time
O=C(Cc1cccs1)NC1CCN(c2cc(N3CCCC3)cnn2)C1 (stereo not drawn)	608 s
COC1C(=O)N(c2cccc(F)c2)C12CCN(S(=O)(=O)Cc1ccccc1F)CC2 (stereo not drawn)	1040 s
CSc1ccc(CNC(=O)COc2cc(C)nc(N3CCN(c4ccccc4)CC3)n2)cc1	857 s
CC(NC(=O)c1ccccc1)C(=O)N1CCN(c2cc(C(C)C)n3cnnc3n2)CC1 (stereo not drawn)	604 s
Cc1cccc(-n2c(=O)c3c(cc(C)n3C)n(CC(=O)Nc3ccc(C)cc3Cl)c2=O)c1	942 s
O=C(c1ccc2nc(-c3ccccc3)cn2c1)N1CCOCC1	580 s
CCc1cc(=O)n(CC(=O)Nc2ccc(Cl)c(Cl)c2)c(-n2nc(C)cc2C)n1	1060 s
Cc1cccn2cc(C(=O)NCCC3=CCCCC3)nc12	860 s
CC(C)n1c(=O)oc2cc(-c3noc(CCc4ccccc4)n3)ccc21	1140 s
NC(=O)C(=O)c1cn(Cc2ccccc2)c2ccccc12	872 s
Cc1ccc(S(=O)(=O)N2CCC(CC(=O)N3CCN(c4ccccn4)CC3)CC2)cc1	701 s
O=C(NCCc1ccco1)c1cc2n(n1)CCCN(Cc1cccc(F)c1)C2=O	751 s
CC(C)c1ccc(NC(=O)Cn2nc(C(=O)N3CCCC3)c3ccccc32)cc1	991 s
O=C(C1CCCN(c2ncnc3c2nc2n3CCCCC2)C1)N1CC=C(c2ccccc2)CC1 (stereo not drawn)	922 s
O=C(NCCCN1CCCC1=O)c1ccc(CN2CC(=O)N3CCCC3C2=O)cc1 (stereo not drawn)	583 s
COc1ccc(N2CC(c3noc(-c4cccc(OC(F)(F)F)c4)n3)CC2=O)cc1 (stereo not drawn)	1050 s
CN(C)c1nc(Nc2ccc(F)cc2)c2cnn(C)c2n1	781 s
C=C(C)Cn1c(C2CC(=O)N(c3ccccc3Br)C2)nc2ccccc21 (stereo not drawn)	708 s
O=C1CCCc2c1cc(C(=O)Nc1ccc(Cl)cc1)c(=O)n2-c1ccc(F)cc1	1060 s
CCC(=O)n1nc(-c2cccc(C)c2)nc1N	890 s
Cc1cnc(CNC(=O)c2c(=O)c3ccc(N4CCCN(C)CC4)nc3n3c2sc2ccccc23)cn1	681 s
COc1ccc(OC)c(-c2csc(NC(=O)c3ccccc3)n2)c1	1040 s

Structure (SMILES)	RP-LC retention time
COC(=O)C1=CN(CC(=O)NCc2ccc(Cl)cc2)S(=O)(=O)N=C1C	850 s
Cc1cc(=O)n(CC(=O)Nc2cc(F)ccc2F)c(N2CCCC2)n1	641 s
O=C(NC1CCN(c2cc(-c3ccc(F)cc3)[nH]n2)C1)c1cc(F)ccc1Cl (stereo not drawn)	685 s
O=C1NC2=C(C(=O)CCC2)C(c2cccc([N+](=O)[O-])c2)N1 (stereo not drawn)	606 s
CCOC(=O)C1=C(CN2CCC(c3ccccc3)C2)NC(=O)NC1c1cccc(OC)c1OC (stereo not drawn)	687 s
COc1ccc(-c2ccc3c(N4CCOC[C@@H]4C)nc(N4CCOC[C@@H]4C)nc3n2)cc1CO	698 s
COc1ccc(NC(=O)C2CC(=O)N(CCc3c[nH]c4ccc(OC)cc34)C2)cc1 (stereo not drawn)	728 s
CCOc1ccc(NC(=O)N(C)CCc2noc(COc3ccccc3)n2)cc1	890 s
Cc1ccc(S(=O)(=O)N2CCC(c3nc(C(=O)N4CCCC4)c(C)o3)CC2)cc1C	747 s
Cc1cccc(S(=O)(=O)N2CC3CN(C(=O)C4CCCCC4)CC(C2)O3)c1	865 s
CCn1cc(-c2ccc(Cl)cc2)cc1C(=O)NCCCN1CCOCC1	709 s
CCn1c(CCc2cccc(NS(=O)(=O)c3cnc[nH]3)c2)nc2ccccc21	524 s
O=C(Cn1nc2c(N3CCCCCC3)nccn2c1=O)Nc1ccccc1F	682 s
Cc1cc(C)c2c(N3CCSCC3)nc(C(=O)NCc3cccs3)nc2n1	746 s
O=C(Nc1ccccc1)C1CCN(S(=O)(=O)c2cc(-c3noc(C4CC4)n3)cs2)CC1	1020 s
CCC(Sc1ccc(NC(=O)c2cccc(F)c2)nn1)C(=O)OC (stereo not drawn)	890 s
Cc1nc(-c2ccccc2)oc1CC(=O)N1CCCCCC1	868 s
COc1ccc(C2Cn3cnc(C(=O)N4CCC(C(=O)Nc5ccc(C)cc5C)CC4)c3CO2)cc1 (stereo not drawn)	740 s
O=c1n(Cc2ccccc2F)nc2ccc(S(=O)(=O)N3CCOCC3)cn12	788 s
Cc1ccc(NC(=O)C2CCCN(S(=O)(=O)c3cn(C(C)C)cn3)C2)cc1C (stereo not drawn)	829 s
COc1ccc(OC)c(NC(=O)Cn2c(=O)nc(N3CCC(C)CC3)c3ccccc32)c1	859 s
Cc1cc2c(cc1NC(=O)c1cccs1)n(C)c(=O)c(=O)n2C	663 s
